Results reported in ChEMBL document CHEMBL4725445, “Discovery of a Cyclic Choline Analog That Inhibits Anaerobic Choline Metabolism by Human Gut Bacteria” (ACS Med Chem Lett, 2020).

Experiments:
[1] = Inhibition of CutC in Escherichia coli MS 200-1 assessed as reduction in TMA formation incubated for 3.5 hrs under anaerobic condition in presence of d9-choline by LC-MS-MS analysis
[2] = Inhibition of Proteus mirabilis CutC assessed as TMA formation by LC-MS/MS
[3] = Inhibition of Escherichia coli MS 69-1 CutC assessed as TMA formation by LC-MS/MS
[4] = Inhibition of TMA formation in human fecal suspension by LC-MS/MS; type: functional, tissue-based, Feces
[5] = Inhibition of Clostridium sporogenes CutC assessed as TMA formation by LC-MS/MS
[6] = Inhibition of Klebsiella sp. MS 92-3 CutC assessed as TMA formation by LC-MS/MS; set-up: species or system Klebsiella pneumoniae
[7] = molecular target: T1, Choline trimethylamine-lyase (Desulfovibrio alaskensis, UniProt Q30W70); test: Inhibition of Desulfovibrio desulfuricans (strain G20) CutC assessed as reduction in TMA by spectrophotometry
T1 sequence (Q30W70 whole entry): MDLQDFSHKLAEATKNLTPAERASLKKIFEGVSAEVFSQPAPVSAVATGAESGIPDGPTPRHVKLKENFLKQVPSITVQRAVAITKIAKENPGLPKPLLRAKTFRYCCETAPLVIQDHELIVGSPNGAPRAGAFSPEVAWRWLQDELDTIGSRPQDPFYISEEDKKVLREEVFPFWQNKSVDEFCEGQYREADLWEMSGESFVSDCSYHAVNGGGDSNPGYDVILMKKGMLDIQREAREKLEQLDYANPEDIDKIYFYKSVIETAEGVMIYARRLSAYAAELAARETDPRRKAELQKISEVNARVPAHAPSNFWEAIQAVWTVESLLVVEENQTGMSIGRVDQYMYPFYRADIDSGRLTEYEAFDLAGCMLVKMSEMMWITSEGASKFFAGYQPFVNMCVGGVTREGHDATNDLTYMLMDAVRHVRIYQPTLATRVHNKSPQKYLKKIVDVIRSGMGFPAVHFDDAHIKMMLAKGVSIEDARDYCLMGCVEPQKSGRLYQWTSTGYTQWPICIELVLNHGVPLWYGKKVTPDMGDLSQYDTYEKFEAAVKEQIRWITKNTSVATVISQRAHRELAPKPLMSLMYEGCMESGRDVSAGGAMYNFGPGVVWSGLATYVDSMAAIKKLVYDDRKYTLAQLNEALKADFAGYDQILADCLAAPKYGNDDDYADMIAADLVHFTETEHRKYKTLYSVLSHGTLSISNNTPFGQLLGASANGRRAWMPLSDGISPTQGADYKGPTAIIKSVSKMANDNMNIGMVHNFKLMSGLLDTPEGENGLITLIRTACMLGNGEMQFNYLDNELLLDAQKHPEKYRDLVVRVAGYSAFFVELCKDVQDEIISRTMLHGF

Compound | IC50 [1] [µM] | other results
CN1CCC(O)CC1 | 1600 | –
CN1CC=C[C@H](O)C1 | 9.8 | IC50 [2]: 0.092 mM; IC50 [3]: 22 µM; IC50 [4]: 60 µM; IC50 [5]: 12 µM; IC50 [6]: 4 µM
CN1CCCC(=O)C1 | 27000 | IC50 [7]: > 10000 µM
CN1CCC(O)C1 (stereo not drawn) | 6300 | –
CC1=CC(O)CN(C)C1 (stereo not drawn) | 920 | –
OC1C=CCN(C2CCC2)C1 (stereo not drawn) | 190 | IC50 [7]: 200 µM
[2H]C1(O)C=CCN(C)C1 (stereo not drawn) | 30 | –
CN1CC=CC(O)C1 (stereo not drawn) | 10 | –
CC(=O)OC1C=CCN(C)C1 (stereo not drawn) | 1800 | –
C[N+]1(C)CC=CC(O)C1 (stereo not drawn) | 7.6 | –
CCCN1CC=CC(O)C1 (stereo not drawn) | 200 | –
CN1CC=C[C@@H](O)C1 | 31 | –
OC1C=CCOC1 (stereo not drawn) | 80 | –
OC1C=CCN(Cc2ccccc2)C1 (stereo not drawn) | 370 | –
OC1C=CCCC1 (stereo not drawn) | 260 | –
CN1CCCC(O)CC1 (stereo not drawn) | 760 | –
C[N+](C)(C)CC=O [BETAINE ALDEHYDE] | – | IC50 [2]: 2.49 mM; IC50 [3]: 465 µM; IC50 [4]: 1270 µM; IC50 [5]: 1000 µM; IC50 [6]: 212 µM
